Experimental findings from BindingDB's records for doi:10.1021/jm00048a016 (National Cancer Institute-Frederick, 1994) are described below.

This test concerns the target Gastrin/cholecystokinin type B receptor (Cavia porcellus). The test is described as follows: Tested for the 50% inhibition level against [125I]- gastrin binding to guinea pig gastric glands.

Usually EC50 stands for the concentration giving half of the maximal effect. In turn, `CSCC[C@H](NC(=O)[C@H](Cc1c[nH]c2ccccc12)NC(=O)CCC(=O)N(Cc1ccccc1)N=NCCCl)C(=O)N[C@@H](CC(=O)O)C(=O)N[C@@H](Cc1ccccc1)C(N)=O` [CBS-4] had an EC50 of 130 nM. In other words, the sub-micromolar range.

Consider `CSCC[C@H](NC(=O)[C@H](Cc1c[nH]c2ccccc12)NC(=O)CCNC(=O)CCC(=O)N(Cc1ccccc1)N=NCCCl)C(=O)N[C@@H](CC(=O)O)C(=O)N[C@@H](Cc1ccccc1)C(N)=O` [CBS-5], for which the EC50 worked out at 80 nM.
